# Target: T1, NMDA receptor GRIN1/GRIN2B (NR2B) expressed in HEK293 cells (Homo sapiens, UniProt Q13224)
# T1 construct: host or cells: HEK293
# Test: Reversal of Ro 25-6981-mediated suppression of the Ca2+ response (fluo-8 fluorescence, FDSS) in HEK293 cells expressing GRIN1 and GRIN2B
# Type: cell-based
# Conditions: % reversal=100*(R−Rneg)/(Rpos−Rneg) of Ro 25-6981 suppression of co-agonist (glutamate/glycine) Ca2+ response, 10 min pre-incubation, compound concentration not given
# Description: HEK293 cells with constructs conferring stable expression of the GRIN1 gene and tetracycline-inducible expression of the GRIN2B gene (Chantest, Cleveland, Ohio) are grown to ˜75% confluence in tissue culture flasks at 37° C., 5% CO2. NR2B expression is induced by overnight incubation with 0.3-0.4 μg/ml tetracycline in the presence of 2.5 mM ARL-15896 at 37° C., followed by moving to 30° C. for 3-5 hours. Cells are next harvested using TripleExpress™ (Life Technologies, Carlsbad, Calif.) according to the manufacturer's instructions, first removing culture medium, rinsing with Dulbecco's phosphate buffered saline (Ca^2+ and Mg^2+-free), and then adding the TripleExpress™ reagent. Harvested cells are spun down, washed twice in Ca^2+- and Mg^2+-free Hank's Balanced Salt Solution with 20 mM HEPES and 10 mM glucose, pH 7.4 (HHnoCa solution), and counted with viability assessed using Trypan Blue. Cells are loaded with fluo-8 Ca^2+-sensitive dye in HHnoCa solution according to the manufacturer's directions (AAT Bioquest, Sunnyvale, Calif.), incubating at 37° C. for 20 minutes followed by 25 minutes at 22-25° C. After a wash in HHnoCa to remove extracellular dye, cells are resuspended in HHnoCa and plated at […] cells per well in a volume of 25 μl/well in 384 well black-wall, clear bottom plates (Hamamatsu, Middlesex, N.J.). Plates are then centrifuged to create a monolayer in the wells and stored in the dark until used.
# Prior to analysis, compound plates are prepared with each compound at 6× the final desired concentration. From stock solutions at 10 mM in 100% DMSO, compounds are spotted in the desired amounts using an ECHO liquid handler (Labcyte, Sunnyvale, Calif.) into wells of a 384-well plate and then diluted with 50 μl of HHnoCa containing 750 nM Ro 25-6981 and 120 μM 5,7-dichlorokynurenic acid (both purchased from Tocris Bioscience (Bristol, England) and maintained as 10 mM stock solutions in 100% DMSO). To insure complete compound dissolution, these plates are then placed in an orbital shaker for at least one hour. Also prepared prior to the assay is a co-agonist plate containing HHnoCa with 240 μM glutamate, 2.4 mM glycine, and 7.2 mM CaCl2, which is 2.4× the desired final concentration of each reagent. Both the compound plate and co-agonist plate are 384-well polypropylene plates from Thermo Fisher Scientific, Waltham, Mass.
# The assay is performed by first adding 10 μl solution from each well of the compound plate described above to the cell plate using a CyBiWell liquid handler (Analytik Jena AG, Jena, Germany), followed by 10 minutes pre-incubation in the dark. Cell plates are then loaded onto a Hamamatsu FDSS 6000 plate reader. After a 30-second baseline, 25 μl is added to each well from the co-agonist plate, and the fluorescence signal is recorded for another 2 minutes. FDSS software applies shading and autofluorescence correction, and resultant raw fluorescence measurements are exported in the form of a fluorescence ratio for each well to its own reading at time zero in the experiment. In each plate, negative control wells consist of wells where Ro 25-6981 and 5,7 dichlorokynurenic acid are present and co-agonist is applied in the absence of any added assay compound. Under these conditions, the Ca^2+ response to co-agonist is suppressed. Positive control wells also present in each plate contain 5,7 dichlorokynurenic acid but no Ro 25-6981, so that co-agonist addition results in a large Ca^2+ response. Compounds tested are evaluated on the basis of their ability to reverse the suppression of the Ca^2+ response mediated by Ro 25-6981, which is quantified as % reversal=100*(R−Rneg)/(Rpos−Rneg) where R is the fluorescence ratio for the test compound at the end of the experiment and Rneg and Rpos are the end ratios for the negative and positive controls, respectively. […]
# T1 sequence (Q13224 27-1484, other chains not shown): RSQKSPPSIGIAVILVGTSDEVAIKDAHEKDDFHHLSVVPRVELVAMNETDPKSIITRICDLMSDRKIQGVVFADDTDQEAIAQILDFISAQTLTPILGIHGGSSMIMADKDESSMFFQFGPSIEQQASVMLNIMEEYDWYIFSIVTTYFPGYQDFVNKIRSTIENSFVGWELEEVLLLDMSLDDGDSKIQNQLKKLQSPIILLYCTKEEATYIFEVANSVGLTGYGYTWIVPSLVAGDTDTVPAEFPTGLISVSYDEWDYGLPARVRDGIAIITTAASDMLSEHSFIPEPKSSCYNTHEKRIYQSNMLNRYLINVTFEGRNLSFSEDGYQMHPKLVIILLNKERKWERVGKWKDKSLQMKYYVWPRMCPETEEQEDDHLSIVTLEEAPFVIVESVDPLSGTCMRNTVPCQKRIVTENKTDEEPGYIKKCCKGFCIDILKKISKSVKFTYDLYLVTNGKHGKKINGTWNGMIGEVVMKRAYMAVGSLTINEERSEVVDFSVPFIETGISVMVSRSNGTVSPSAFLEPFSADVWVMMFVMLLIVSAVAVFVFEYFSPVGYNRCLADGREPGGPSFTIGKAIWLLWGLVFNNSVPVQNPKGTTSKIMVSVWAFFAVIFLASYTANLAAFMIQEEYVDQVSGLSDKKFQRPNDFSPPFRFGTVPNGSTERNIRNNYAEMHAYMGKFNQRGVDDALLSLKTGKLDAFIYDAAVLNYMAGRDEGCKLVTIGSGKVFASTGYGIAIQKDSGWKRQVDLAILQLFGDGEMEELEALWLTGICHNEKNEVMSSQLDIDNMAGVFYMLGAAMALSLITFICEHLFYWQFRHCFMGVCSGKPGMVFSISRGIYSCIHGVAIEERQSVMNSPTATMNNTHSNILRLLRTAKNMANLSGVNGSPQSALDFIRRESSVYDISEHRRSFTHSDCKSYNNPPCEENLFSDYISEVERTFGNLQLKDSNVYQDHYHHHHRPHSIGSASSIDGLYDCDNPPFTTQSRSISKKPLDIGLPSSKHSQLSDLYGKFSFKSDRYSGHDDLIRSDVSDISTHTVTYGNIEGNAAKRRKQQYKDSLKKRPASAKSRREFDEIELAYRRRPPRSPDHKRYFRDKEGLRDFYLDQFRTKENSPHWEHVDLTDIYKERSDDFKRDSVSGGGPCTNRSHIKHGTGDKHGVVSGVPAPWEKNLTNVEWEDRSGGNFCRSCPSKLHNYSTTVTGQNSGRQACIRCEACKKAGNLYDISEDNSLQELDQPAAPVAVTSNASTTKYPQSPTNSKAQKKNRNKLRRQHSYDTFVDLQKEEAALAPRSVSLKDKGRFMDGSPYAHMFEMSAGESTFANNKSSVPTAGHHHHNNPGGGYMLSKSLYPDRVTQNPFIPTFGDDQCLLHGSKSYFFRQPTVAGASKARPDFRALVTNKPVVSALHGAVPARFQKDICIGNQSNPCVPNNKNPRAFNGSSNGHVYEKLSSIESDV
row,SMILES,Response Recovered (%)
1,"O=C(Cn1cnc2scc(-c3ccc(Cl)c(Cl)c3)c2c1=O)N1CCCC1 [Example 37, 5-(3,4-dichlorophenyl)-3-[2-oxo-2-(pyrrolidin-1-yl)ethyl]-3H,4H-thieno[2,3-d]pyrimidin-4-one]",61
2,"O=C(Cn1cnc2scc(-c3ccc(C(F)(F)F)cc3)c2c1=O)N1CCCC1 [Example 17, 3-[2-oxo-2-(pyrrolidin-1-yl)ethyl]-5-[4-(trifluoromethyl)phenyl]-3H,4H-thieno[2,3-d]pyrimidin-4-one]",11
3,"CC1CCCC(C)N1C(=O)Cn1cnc2scc(-c3ccc(Cl)cc3)c2c1=O (centres unmarked) [Example 12, 5-(4-chlorophenyl)-3-[2-(2,6-dimethylpiperidin-1-yl)-2-oxoethyl]-3H,4H-thieno[2,3-d]pyrimidin-4-one]",−1
4,O=C(Cn1cnc2scc(-c3ccc(C(F)(F)F)c(Cl)c3)c2c1=O)N1CCC(F)C1 (centres unmarked) [Example 62],62
5,"O=C(Cn1c(C(F)(F)F)nc2scc(-c3ccc(Cl)cc3)c2c1=O)N1CCCC1C(F)(F)F (centres unmarked) [Example 104, 5-(4-chlorophenyl)-3-(2-oxo-2-(2-(trifluoromethyl)pyrrolidin-1-yl)ethyl)-2-(trifluoromethyl)thieno[2,3-d]pyrimidin-4(3H)-one]",−2
6,"O=C(Cn1cnc2scc(-c3ccc(Cl)c(Cl)c3)c2c1=O)N1CC[C@@H](F)C1 [Example 68, 5-(3,4-dichlorophenyl)-3-{2-[(3R)-3-fluoropyrrolidin-1-yl]-2-oxoethyl}-3H,4H-thieno[2,3-d]pyrimidin-4-one]",71
7,"C[C@H]1CCCN1C(=O)Cn1cnc2scc(-c3ccc(Cl)cc3)c2c1=O [Example 10, 5-(4-chlorophenyl)-3-{2-[(2S)-2-methylpyrrolidin-1-yl]-2-oxoethyl}-3H,4H-thieno[2,3-d]pyrimidin-4-one]",2
8,"O=C(Cn1cnc2scc(-c3ccc(Cl)c(C(F)(F)F)c3)c2c1=O)N1C[C@@H](F)[C@@H](F)C1 [Example 66, 5-[4-chloro-3-(trifluoromethyl)phenyl]-3-{2-[(3R,4S)-3,4-difluoropyrrolidin-1-yl]-2-oxoethyl}-3H,4H-thieno[2,3-d]pyrimidin-4-one]",103
9,"O=C(Cn1cnc2scc(-c3ccc(F)c(F)c3)c2c1=O)N1CCCC1 [Example 42, 5-(3,4-difluorophenyl)-3-[2-oxo-2-(pyrrolidin-1-yl)ethyl]-3H,4H-thieno[2,3-d]pyrimidin-4-one]",3
10,"O=C(Cn1cnc2scc(-c3ccc(Cl)cc3)c2c1=O)N1CCC(F)(F)CC1 [Example 14, 5-(4-chlorophenyl)-3-[2-(4,4-difluoropiperidin-1-yl)-2-oxoethyl]-3H,4H-thieno└2,3-d┘pyrimidin-4-one]",2
11,"Cc1nc2scc(-c3ccc(Cl)cc3)c2c(=O)n1CC(=O)N1CCCC1C(F)(F)F (centres unmarked) [Example 99, 5-(4-chlorophenyl)-2-methyl-3-{2-oxo-2-[2-(trifluoromethyl)pyrrolidin-1-yl]ethyl}-3H,4H-thieno[2,3-d]pyrimidin-4-one]",3
12,"O=C(Cn1cnc2scc(-c3cnc(Cl)c(C(F)(F)F)c3)c2c1=O)N1CC(F)C(F)C1 (centres unmarked) [Example 71, 5-[6-chloro-5-(trifluoromethyl)pyridin-3-yl]-3-[2-(3,4-difluoropyrrolidin-1-yl)-2-oxoethyl]-3H,4H-thieno[2,3-d]pyrimidin-4-one]",25
13,"Cc1sc2ncn(CC(=O)N3CCCC3)c(=O)c2c1-c1ccc(Cl)c(Cl)c1 [Example 84, 5-(3,4-dichlorophenyl)-6-methyl-3-[2-oxo-2-(pyrrolidin-1-yl)ethyl]-3H,4H-thieno[2,3-d]pyrimidin-4-one]",60
14,"O=C(Cn1cnc2scc(-c3ccc(Cl)c(C(F)(F)F)c3)c2c1=O)N1CCC(F)C1 (centres unmarked) [Example 19, 5-[4-chloro-3-(trifluoromethyl)phenyl]-3-[2-(3-fluoropyrrolidin-1-yl)-2-oxoethyl]-3H,4H-thieno[2,3-d]pyrimidin-4-one]",93
15,"O=C(Cn1cnc2scc(-c3ccc(Cl)c(C(F)(F)F)c3)c2c1=O)N1CC[C@@H](F)C1 [Example 64, 5-[4-chloro-3-(trifluoromethyl)phenyl]-3-{2-[(3R)-3-fluoropyrrolidin-1-yl]-2-oxoethyl}-3H,4H-thieno[2,3-d]pyrimidin-4-one]",117
16,"O=C(CCn1cnc2scc(-c3ccc(Cl)c(C(F)(F)F)c3)c2c1=O)N1CCC(F)C1 (centres unmarked) [Example 102, 5-[4-chloro-3-(trifluoromethyl)phenyl]-3-[3-(3-fluoropyrrolidin-1-yl)-3-oxopropyl]-3H,4H-thieno[2,3-d]pyrimidin-4-one]",2
17,"O=C(Cn1cnc2scc(-c3cnc(Cl)c(Cl)c3)c2c1=O)N1CCC(F)C1 (centres unmarked) [Example 63, 5-(5,6-dichloropyridin-3-yl)-3-[2-(3-fluoropyrrolidin-1-yl)-2-oxoethyl]-3H,4H-thieno[2,3-d]pyrimidin-4-one]",10
18,"O=C(CNn1cnc2scc(-c3ccc(Cl)c(C(F)(F)F)c3)c2c1=O)N1CCCC1 [Example 91, 5-(4-chloro-3-(trifluoromethyl)phenyl)-3-((2-oxo-2-(pyrrolidin-1-yl)ethyl)amino)thieno[2,3-d]pyrimidin-4(3H)-one]",2
19,"Cc1nc2scc(-c3ccc(Cl)cc3)c2c(=O)n1CC(=O)N1CCCC1 [Example 98, 5-(4-chlorophenyl)-2-methyl-3-(2-oxo-2-(pyrrolidin-1-yl)ethyl)thieno[2,3-d]pyrimidin-4(3H)-one]",6
20,"COc1ccc(C(F)(F)F)cc1-c1csc2ncn(CC(=O)N3CCCC3)c(=O)c12 [Example 44, 5-[2-methoxy-5-(trifluoromethyl)phenyl]-3-[2-oxo-2-(pyrrolidin-1-yl)ethyl]-3H,4H-thieno[2,3-d]pyrimidin-4-one]",4
21,"O=C(Cn1cnc2scc(-c3ccc(F)cc3Cl)c2c1=O)N1CCCC1 [Example 53, 5-(2-chloro-4-fluorophenyl)-3-[2-oxo-2-(pyrrolidin-1-yl)ethyl]-3H,4H-thieno└2,3-d┘pyrimidin-4-one]",5
22,"O=C(Cn1cnc2scc(-c3cc(C(F)(F)F)ccc3F)c2c1=O)N1CCCC1 [Example 54, 5-[2-fluoro-5-(trifluoromethyl)phenyl]-3-[2-oxo-2-(pyrrolidin-1-yl)ethyl]-3H,4H-thieno[2,3-d]pyrimidin-4-one]",20
23,"CN(C)/C=N/n1cnc2scc(-c3ccc(Cl)c(C(F)(F)F)c3)c2c1=O [Example 100, (E)-N′-(5-(4-chloro-3-(trifluoromethyl)phenyl)-4-oxothieno[2,3-d]pyrimidin-3(4H)-yl)-N,N-dimethylformimidamide]",14
24,"Cc1sc2ncn(CC(=O)N3CCCC3)c(=O)c2c1-c1ccc(F)c(Cl)c1 [Example 83, 5-(3-chloro-4-fluorophenyl)-6-methyl-3-[2-oxo-2-(pyrrolidin-1-yl)ethyl]-3H,4H-thieno[2,3-d]pyrimidin-4-one]",45
25,"O=C(On1cnc2scc(-c3ccc(F)c(Cl)c3)c2c1=O)N1CCCC1 [Example 86, 5-(3-chloro-4-fluorophenyl)-4-oxo-3H,4H-thieno[2,3-d]pyrimidin-3-yl pyrrolidine-1-carboxylate]",48
26,"Cc1ccc(-c2csc3ncn(CC(=O)N4CCCC4C(F)(F)F)c(=O)c23)cc1 (centres unmarked) [Example 28, 5-(4-methylphenyl)-3-{2-oxo-2-[2-(trifluoromethyl)pyrrolidin-1-yl]ethyl}-3H,4H-thieno[2,3-d]pyrimidin-4-one]",6

# From patent US11541057B2, “Thienopyrimidinone NMDA receptor modulators and uses thereof” (Cadent Therapeutics, Inc., priority 2015, dated 2023)
